This is an account of results in PubChem BioAssay (NCI).

Test systems include CAKI-1 renal; SW-620 colon; SK-MEL-28 melanoma; TK-10 renal; MALME-3M melanoma; DU-145 prostate; A549 NSCLC; OVCAR-4 ovarian; M14 melanoma; 786-0 renal.
Common to all, as to assay: inhibition of tumour cell growth, NCI panel, 48 h

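Test compounds were applied to cells in 96-well plates for 48 hours at 5 doses. GI50 = concentration required for 50% inhibition of growth. TGI marks complete inhibition of growth.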 Where only a bound is given, the exact number is not on record here.

As for `CN(C)CCNC(=O)Cn1ccc(=O)c2c([N+](=O)[O-])cccc21`, the TGI in the test on CAKI-1 renal was more than 100 µM; with SW-620 colon, more than 100000 nM; with SK-MEL-28 melanoma, more than 100 µM; in the test with TK-10 renal it was more than 100 µM; with MALME-3M melanoma, more than 100 µM; with DU-145 prostate it was more than 100 µM. For the same molecule, the TGI in the test on A549 NSCLC, in the test with OVCAR-4 ovarian, in the test with M14 melanoma and with 786-0 renal was more than 100 µM throughout.

As to `C=C1C(=O)O[C@H]2[C@H]1CC/C(COC(=O)NCC(C)c1ccc(CC(C)C)cc1)=C\CC[C@@]1(C)O[C@@H]21` (stereo not given in full), the GI50 with CAKI-1 renal is 2320 nM; in the test with SW-620 colon it was 751 nM; in the test on SK-MEL-28 melanoma, 1600 nM; in the test with TK-10 renal, 3340 nM; in the test on MALME-3M melanoma, 926 nM; in the test on DU-145 prostate it was 2930 nM. For the same molecule, the values for the GI50 in the test on A549 NSCLC, with OVCAR-4 ovarian and in the test on 786-0 renal were 6.46 µM, 2310 nM and 582 nM, respectively. The TGI came out at 6.68 µM in the test on CAKI-1 renal; 1790 nM with SW-620 colon; 5.52 µM in the test on SK-MEL-28 melanoma; 7.23 µM in the test with TK-10 renal; 2.89 µM in the test on MALME-3M melanoma; 6.95 µM in the test on DU-145 prostate. Besides, the TGI amounted to 11.8 µM in the test with A549 NSCLC, 6.59 µM with OVCAR-4 ovarian and 1.1 µM in the test on 786-0 renal.

Take `Cc1ccc(-c2nc3nc(-c4ccc(F)cc4)nc(N4CCCNCC4)c3o2)cc1`: the GI50 in the test with CAKI-1 renal is 1440 nM; in the test on SW-620 colon it was 742 nM; in the test on SK-MEL-28 melanoma, 1790 nM; with TK-10 renal it was 1660 nM; in the test with MALME-3M melanoma, 1710 nM; in the test on DU-145 prostate, 1680 nM. Besides, the figures for the GI50 with OVCAR-4 ovarian, in the test on M14 melanoma and with 786-0 renal were 1830 nM, 1860 nM and 1830 nM, respectively. The TGI in the test on CAKI-1 renal was found to be 2.74 µM; in the test with SW-620 colon, 2170 nM; in the test with SK-MEL-28 melanoma, 3.23 µM; in the test on TK-10 renal it was 3.09 µM; in the test with MALME-3M melanoma it was 3.21 µM; with DU-145 prostate it was 3.11 µM. Besides, the TGI in the test with OVCAR-4 ovarian is 3.25 µM; with M14 melanoma, 3.56 µM; in the test on 786-0 renal, 3.56 µM.

Consider `COc1ccc(C(=O)c2ccc([As]=O)cc2)cc1` (stereo not given), for which the GI50 in the test on CAKI-1 renal was 64 nM; in the test with SW-620 colon, 31.3 nM; with TK-10 renal it was 57 nM; in the test on MALME-3M melanoma, 28.1 nM; in the test on DU-145 prostate, 73.5 nM; in the test on A549 NSCLC, 0.158 µM. The GI50 in the test on OVCAR-4 ovarian was 45.4 nM; in the test with M14 melanoma, 62.9 nM; in the test on 786-0 renal it was 60.5 nM. The TGI in the test with CAKI-1 renal was determined as 0.201 µM; in the test with SW-620 colon, 111 nM; with TK-10 renal, 0.18 µM; with MALME-3M melanoma, 0.0861 µM; in the test on DU-145 prostate, 0.198 µM; in the test on A549 NSCLC, 0.348 µM. The TGI turned out to be 0.182 µM in the test with OVCAR-4 ovarian, 0.218 µM in the test with M14 melanoma and 0.191 µM in the test with 786-0 renal.

Consider `O=C(Nc1ccc(Cl)c(Cl)c1)NS(=O)(=O)c1cnccc1Oc1ccc(F)cc1`, for which the GI50 was 2500 nM in the test with CAKI-1 renal; 3010 nM with SW-620 colon; 3690 nM with TK-10 renal; 2530 nM with MALME-3M melanoma; 4190 nM with DU-145 prostate; 9.92 µM with A549 NSCLC. Further, the GI50 was 3260 nM with OVCAR-4 ovarian, 5240 nM in the test on M14 melanoma and 4510 nM with 786-0 renal. Besides, the TGI in the test on CAKI-1 renal is 8.23 µM; in the test with SW-620 colon, more than 100000 nM; with TK-10 renal, 21.6 µM; with MALME-3M melanoma it was 7.55 µM; with DU-145 prostate, 28.8 µM; with A549 NSCLC, 52 µM. Also, the TGI with OVCAR-4 ovarian is more than 100 µM; in the test with M14 melanoma, more than 100 µM; with 786-0 renal, 70.9 µM.

For the molecule `CCCCn1c(-c2ccc(C(=O)O/N=C(\N)c3ccc4c(c3)OCO4)cc2)nc(-c2ccccc2)c1-c1ccccc1`, the GI50 with CAKI-1 renal was 1350 nM; with SW-620 colon, 3810 nM; with SK-MEL-28 melanoma, 5690 nM; in the test on MALME-3M melanoma, 1780 nM; with DU-145 prostate, 1650 nM; in the test on A549 NSCLC, 1.92 µM. Moreover, the GI50 in the test with OVCAR-4 ovarian is 3500 nM; in the test on M14 melanoma it was 2850 nM; in the test on 786-0 renal, 2500 nM. Moreover, the TGI with CAKI-1 renal is 3.37 µM; in the test on SW-620 colon, more than 100000 nM; in the test on SK-MEL-28 melanoma it was more than 100 µM; in the test with MALME-3M melanoma it was 4.3 µM; with DU-145 prostate it was 3.21 µM; in the test with A549 NSCLC, 5.22 µM. Further, the TGI was more than 100 µM in the test with OVCAR-4 ovarian, 17.5 µM in the test with M14 melanoma and 6.15 µM in the test on 786-0 renal.
